# Results reported in patent US10916331B2, “Predicting drug-target interactions and uses for drug repositioning and repurposing” (GEORGETOWN UNIVERSITY, priority 2015, dated 2021).
# Key:
# VEGFR-2 = molecular target: T1, VEGFR-2 (Homo sapiens, UniProt P35968); experiment: Kinomescan active site-directed competition binding assay
# T1 construct: purchased Discoverx (Kinomescan); host or cells: E. coli BL21-derived host (T7 phage) or HEK-293
# Method: Kinase-tagged T7 phage strains were grown in parallel in 24-well blocks in an E. coli host derived from the BL21 strain. […] The remaining kinases were produced in HEK-293 cells and subsequently tagged with DNA for qPCR detection. […] The liganded beads were blocked with excess biotin and washed with blocking buffer (SeaBlock (Pierce), 1% BSA, 0.05% Tween 20, 1 mM DTT) to remove unbound ligand and to reduce non-specific phage binding. […] All reactions were performed in polypropylene 384-well plates in a final volume of 0.04 ml. […] The kinase concentration in the eluates was measured by qPCR.
# An 11-point 3-fold serial dilution of each test compound was prepared in 100% DMSO at 100× final test concentration and subsequently diluted to 1× in the assay (final DMSO concentration=1%).
# mammalian tubulin = settings: background statement; cited from earlier work
# hookworm tubulin = settings: background statement; cited from earlier work
# P38-alpha = molecular target: T2, P38-alpha (Homo sapiens, UniProt Q16539); experiment: Kinomescan active site-directed competition binding assay
# T2 construct: purchased Discoverx (Kinomescan); host or cells: E. coli BL21-derived host (T7 phage) or HEK-293
# Method: (§1) Kinase assays were performed using Kinomescan, by Discoverx, CA, USA and Caliper LabChip 3000 by Caliper Life sciences, USA as described previously. The determination of MBZ thermodynamic binding affinities (Kd) to kinase targets predicted by RepurposeVS was performed by using active site-directed competition binding. Kinase-tagged T7 phage strains were grown in parallel in 24-well blocks in an E. coli host derived from the BL21 strain. E. coli bacteria were grown to log-phase and infected with T7 phage from a frozen stock (multiplicity of infection=0.4) and incubated with shaking at 32° C. until lysis (90-150 minutes). The lysates were centrifuged (6,000×g) and filtered (0.2 μm sieves) to remove cell debris. The remaining kinases were produced in HEK-293 cells and subsequently tagged with DNA for qPCR detection. […] The liganded beads were blocked with excess biotin and washed with blocking buffer (SeaBlock (Pierce), 1% BSA, 0.05% Tween 20, 1 mM DTT) to remove unbound ligand and to reduce non-specific phage binding. Binding reactions were assembled by combining kinases, control liganded affinity beads, and mebendazole in 1× binding buffer (20% SeaBlock, 0.17×PBS, 0.05% Tween 20, 6 mM DTT). Mebendazole was prepared as 40× stocks in 100% DMSO and directly diluted into the assay. All reactions were performed in polypropylene 384-well plates in a final volume of 0.04 ml. The assay plates were incubated at room temperature with shaking for 1 hour and the affinity beads were washed with wash buffer (lx PBS, 0.05% Tween 20). […] The kinase concentration in the eluates was measured by qPCR. […] The amount of kinase captured in test versus control samples were measured by using a quantitative, precise and ultra-sensitive qPCR method that detects the associated DNA label. Using (13), the primary screen binding interactions are reported as ‘% Ctrl’ (Percent kinase remaining activity), where lower numbers indicate stronger hits. In a similar manner, binding constants (Kd) for mebendazole-kinase interactions are calculated by measuring the amount of kinase captured as a function of the mebendazole concentration in a dose response manner. […] Binding constants (Kd) were calculated with a standard dose-response curve (drug dose (x-axis)−qPCR signal (y-axis)) using the Hill equation in (14) with the Hill Slope set to −1.
# SRC = molecular target: T3, SRC (Homo sapiens, UniProt P12931); experiment: as above; settings: MBZ at 10 μM, lower = stronger hit, read-out: Percent Control at 10 μM
# T3 construct: purchased Discoverx (Kinomescan); host or cells: E. coli BL21-derived host (T7 phage) or HEK-293
# Method: as §1
# JNK1 = molecular target: T4, JNK1 (Homo sapiens, UniProt P45983); experiment: as above; settings: MBZ at 10 μM, lower = stronger hit, read-out: Percent Control at 10 μM
# T4 construct: purchased Discoverx (Kinomescan); host or cells: E. coli BL21-derived host (T7 phage) or HEK-293
# Method: as §1
# [1] = molecular target: T5, ABL1(T315I)-phosphorylated (Homo sapiens, UniProt P00519, T315I); experiment: as above; settings: MBZ at 10 μM, lower = stronger hit, read-out: Percent Control at 10 μM
# T5 construct: purchased Discoverx (Kinomescan); host or cells: E. coli BL21-derived host (T7 phage) or HEK-293
# Method: as §1
# DYRK1A = molecular target: T6, DYRK1A (Homo sapiens, UniProt Q13627); experiment: as above; settings: MBZ at 10 μM, lower = stronger hit, read-out: Percent Control at 10 μM
# T6 construct: purchased Discoverx (Kinomescan); host or cells: E. coli BL21-derived host (T7 phage) or HEK-293
# Method: as §1
# DYRK1B = molecular target: T7, DYRK1B (Homo sapiens, UniProt Q9Y463); experiment: as above
# T7 construct: purchased Discoverx (Kinomescan); host or cells: E. coli BL21-derived host (T7 phage) or HEK-293
# T7 sequence (Q9Y463 whole entry): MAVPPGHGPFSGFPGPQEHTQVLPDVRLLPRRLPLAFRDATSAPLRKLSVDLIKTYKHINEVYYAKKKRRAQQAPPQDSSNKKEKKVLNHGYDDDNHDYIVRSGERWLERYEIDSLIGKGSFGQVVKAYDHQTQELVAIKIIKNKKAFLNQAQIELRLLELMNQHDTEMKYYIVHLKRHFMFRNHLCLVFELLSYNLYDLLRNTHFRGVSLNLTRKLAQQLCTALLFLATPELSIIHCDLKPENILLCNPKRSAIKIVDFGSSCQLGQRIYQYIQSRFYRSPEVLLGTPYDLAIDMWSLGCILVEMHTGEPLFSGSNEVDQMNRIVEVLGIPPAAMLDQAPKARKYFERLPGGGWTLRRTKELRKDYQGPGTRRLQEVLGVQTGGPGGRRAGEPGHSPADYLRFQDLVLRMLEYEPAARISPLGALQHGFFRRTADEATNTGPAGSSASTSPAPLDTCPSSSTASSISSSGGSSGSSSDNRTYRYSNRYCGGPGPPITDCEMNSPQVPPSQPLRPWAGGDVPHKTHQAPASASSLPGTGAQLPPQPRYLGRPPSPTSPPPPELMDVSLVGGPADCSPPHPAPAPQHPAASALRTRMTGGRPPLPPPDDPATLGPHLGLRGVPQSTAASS
# Method: as §1
# CSNK1D = molecular target: T8, CSNK1D (Homo sapiens, UniProt P48730); experiment: as above; settings: MBZ at 10 μM, lower = stronger hit, read-out: Percent Control at 10 μM
# T8 construct: purchased Discoverx (Kinomescan); host or cells: E. coli BL21-derived host (T7 phage) or HEK-293
# Method: as §1
# JAK3 = molecular target: T9, JAK3 (Homo sapiens, UniProt P52333); experiment: as above; settings: MBZ at 10 μM, lower = stronger hit, read-out: Percent Control at 10 μM
# T9 construct: purchased Discoverx (Kinomescan); host or cells: E. coli BL21-derived host (T7 phage) or HEK-293
# Method: as §1
# MET = molecular target: T10, MET (Homo sapiens, UniProt P08581); experiment: as above; settings: MBZ at 10 μM, lower = stronger hit, read-out: Percent Control at 10 μM
# T10 construct: purchased Discoverx (Kinomescan); host or cells: E. coli BL21-derived host (T7 phage) or HEK-293
# Method: as §1
# PDGFR-A = molecular target: T11, PDGFR-A (Homo sapiens, UniProt P16234); experiment: as above
# T11 construct: purchased Discoverx (Kinomescan); host or cells: E. coli BL21-derived host (T7 phage) or HEK-293
# T11 sequence (P16234 24-1089): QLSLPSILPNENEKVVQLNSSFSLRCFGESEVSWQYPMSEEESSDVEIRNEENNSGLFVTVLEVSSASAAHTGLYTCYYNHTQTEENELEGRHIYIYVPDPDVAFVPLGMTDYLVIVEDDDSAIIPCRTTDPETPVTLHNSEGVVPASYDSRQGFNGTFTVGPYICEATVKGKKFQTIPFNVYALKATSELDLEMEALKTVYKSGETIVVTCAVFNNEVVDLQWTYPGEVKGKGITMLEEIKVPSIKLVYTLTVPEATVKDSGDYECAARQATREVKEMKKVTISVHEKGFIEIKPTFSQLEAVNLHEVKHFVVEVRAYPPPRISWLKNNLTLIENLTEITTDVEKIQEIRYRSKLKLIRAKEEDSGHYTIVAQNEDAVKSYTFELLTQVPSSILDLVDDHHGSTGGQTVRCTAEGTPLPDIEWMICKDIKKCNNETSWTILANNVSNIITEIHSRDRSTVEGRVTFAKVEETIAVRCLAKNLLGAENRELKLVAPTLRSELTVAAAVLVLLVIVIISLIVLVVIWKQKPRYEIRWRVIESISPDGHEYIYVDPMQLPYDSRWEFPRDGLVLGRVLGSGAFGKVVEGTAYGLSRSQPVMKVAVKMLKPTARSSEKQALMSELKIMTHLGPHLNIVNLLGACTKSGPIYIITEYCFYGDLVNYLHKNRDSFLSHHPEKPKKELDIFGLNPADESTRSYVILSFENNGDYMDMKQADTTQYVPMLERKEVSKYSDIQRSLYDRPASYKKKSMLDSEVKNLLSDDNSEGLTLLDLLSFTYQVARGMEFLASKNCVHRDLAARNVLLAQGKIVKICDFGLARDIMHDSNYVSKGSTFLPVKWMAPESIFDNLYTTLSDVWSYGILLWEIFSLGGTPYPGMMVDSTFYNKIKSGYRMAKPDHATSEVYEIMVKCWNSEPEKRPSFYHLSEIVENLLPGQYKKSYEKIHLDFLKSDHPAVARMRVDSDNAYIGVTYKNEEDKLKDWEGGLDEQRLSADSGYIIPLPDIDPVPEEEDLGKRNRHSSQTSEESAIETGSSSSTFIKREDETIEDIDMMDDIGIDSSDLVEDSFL
# Method: as §1
# ABL1-nonphosphorylated = molecular target: T12, ABL1-nonphosphorylated (Homo sapiens, UniProt P00519); experiment: as above; settings: MBZ at 10 μM, lower = stronger hit, read-out: Percent Control at 10 μM
# T12 construct: purchased Discoverx (Kinomescan); host or cells: E. coli BL21-derived host (T7 phage) or HEK-293
# Method: as §1
# JNK3 = molecular target: T13, JNK3 (Homo sapiens, UniProt P53779); experiment: as above
# T13 construct: purchased Discoverx (Kinomescan); host or cells: E. coli BL21-derived host (T7 phage) or HEK-293
# T13 sequence (P53779 whole entry): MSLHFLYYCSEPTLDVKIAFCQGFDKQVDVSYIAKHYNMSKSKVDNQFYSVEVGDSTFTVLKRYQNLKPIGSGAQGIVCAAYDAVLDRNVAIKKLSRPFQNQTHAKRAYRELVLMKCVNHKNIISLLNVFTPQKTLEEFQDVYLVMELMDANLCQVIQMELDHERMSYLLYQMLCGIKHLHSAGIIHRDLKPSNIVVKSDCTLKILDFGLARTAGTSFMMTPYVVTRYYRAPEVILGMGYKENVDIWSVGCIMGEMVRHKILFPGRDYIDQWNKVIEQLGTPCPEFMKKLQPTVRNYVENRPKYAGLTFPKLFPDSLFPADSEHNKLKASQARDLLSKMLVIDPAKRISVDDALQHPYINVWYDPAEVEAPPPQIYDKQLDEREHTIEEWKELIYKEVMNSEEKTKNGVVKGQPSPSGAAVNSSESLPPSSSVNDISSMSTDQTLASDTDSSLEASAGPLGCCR
# Method: as §1
# PIK3CG = molecular target: T14, PIK3CG (Homo sapiens, UniProt P48736); experiment: as above; settings: MBZ at 10 μM, lower = stronger hit, read-out: Percent Control at 10 μM
# T14 construct: purchased Discoverx (Kinomescan); host or cells: E. coli BL21-derived host (T7 phage) or HEK-293
# Method: as §1
# PDGFR-B = molecular target: T15, PDGFR-B (Homo sapiens, UniProt P09619); experiment: as above
# T15 construct: purchased Discoverx (Kinomescan); host or cells: E. coli BL21-derived host (T7 phage) or HEK-293
# T15 sequence (P09619 33-1106): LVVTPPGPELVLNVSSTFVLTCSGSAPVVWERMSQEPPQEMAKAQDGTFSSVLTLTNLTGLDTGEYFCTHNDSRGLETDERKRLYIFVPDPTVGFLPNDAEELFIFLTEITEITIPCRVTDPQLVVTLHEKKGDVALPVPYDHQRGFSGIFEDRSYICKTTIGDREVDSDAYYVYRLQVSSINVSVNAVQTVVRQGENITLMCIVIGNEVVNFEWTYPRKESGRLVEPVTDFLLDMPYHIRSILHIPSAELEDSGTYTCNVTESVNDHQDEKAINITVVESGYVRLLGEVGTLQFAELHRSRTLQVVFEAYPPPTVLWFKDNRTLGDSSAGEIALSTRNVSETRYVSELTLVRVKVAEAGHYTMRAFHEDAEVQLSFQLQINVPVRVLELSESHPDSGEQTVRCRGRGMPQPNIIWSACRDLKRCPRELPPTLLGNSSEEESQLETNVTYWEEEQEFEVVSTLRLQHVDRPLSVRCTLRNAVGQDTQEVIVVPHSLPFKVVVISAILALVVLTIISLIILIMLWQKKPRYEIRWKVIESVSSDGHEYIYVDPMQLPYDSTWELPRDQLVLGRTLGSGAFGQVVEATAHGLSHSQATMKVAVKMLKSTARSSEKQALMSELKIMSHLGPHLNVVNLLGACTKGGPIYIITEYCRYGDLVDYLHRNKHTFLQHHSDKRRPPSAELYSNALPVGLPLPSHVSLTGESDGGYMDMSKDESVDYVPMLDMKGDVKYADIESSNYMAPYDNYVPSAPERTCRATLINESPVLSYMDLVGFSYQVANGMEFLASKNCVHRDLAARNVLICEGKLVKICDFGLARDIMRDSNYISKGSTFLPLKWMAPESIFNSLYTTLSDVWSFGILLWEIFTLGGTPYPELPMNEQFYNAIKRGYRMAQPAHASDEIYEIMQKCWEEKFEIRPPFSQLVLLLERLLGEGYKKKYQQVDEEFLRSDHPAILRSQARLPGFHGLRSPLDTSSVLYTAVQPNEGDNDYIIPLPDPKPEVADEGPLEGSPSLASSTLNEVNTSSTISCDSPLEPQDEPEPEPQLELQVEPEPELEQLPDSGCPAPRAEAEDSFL
# Method: as §1
# ULK2 = molecular target: T16, ULK2 (Homo sapiens, UniProt Q8IYT8); experiment: as above; settings: MBZ at 10 μM, lower = stronger hit, read-out: Percent Control at 10 μM
# T16 construct: purchased Discoverx (Kinomescan); host or cells: E. coli BL21-derived host (T7 phage) or HEK-293
# Method: as §1
# JNK2 = molecular target: T17, JNK2 (Homo sapiens, UniProt P45984); experiment: as above
# T17 construct: purchased Discoverx (Kinomescan); host or cells: E. coli BL21-derived host (T7 phage) or HEK-293
# T17 sequence (P45984 whole entry): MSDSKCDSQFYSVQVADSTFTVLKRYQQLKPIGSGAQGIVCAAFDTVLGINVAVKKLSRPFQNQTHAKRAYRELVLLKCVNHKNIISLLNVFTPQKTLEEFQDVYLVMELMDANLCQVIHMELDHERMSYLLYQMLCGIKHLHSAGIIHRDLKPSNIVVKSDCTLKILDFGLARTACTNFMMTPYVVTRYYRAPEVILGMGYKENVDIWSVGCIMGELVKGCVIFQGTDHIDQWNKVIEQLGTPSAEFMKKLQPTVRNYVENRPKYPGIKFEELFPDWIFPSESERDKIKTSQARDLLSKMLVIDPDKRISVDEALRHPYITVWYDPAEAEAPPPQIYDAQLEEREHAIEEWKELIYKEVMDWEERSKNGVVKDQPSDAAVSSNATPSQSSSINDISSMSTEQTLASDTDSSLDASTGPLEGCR
# Method: as §1
# KIT = molecular target: T18, KIT (Homo sapiens, UniProt P10721); experiment: as above; settings: listed as 'KIT (D816V)'
# T18 construct: purchased Discoverx (Kinomescan); host or cells: E. coli BL21-derived host (T7 phage) or HEK-293
# T18 sequence (P10721 26-976): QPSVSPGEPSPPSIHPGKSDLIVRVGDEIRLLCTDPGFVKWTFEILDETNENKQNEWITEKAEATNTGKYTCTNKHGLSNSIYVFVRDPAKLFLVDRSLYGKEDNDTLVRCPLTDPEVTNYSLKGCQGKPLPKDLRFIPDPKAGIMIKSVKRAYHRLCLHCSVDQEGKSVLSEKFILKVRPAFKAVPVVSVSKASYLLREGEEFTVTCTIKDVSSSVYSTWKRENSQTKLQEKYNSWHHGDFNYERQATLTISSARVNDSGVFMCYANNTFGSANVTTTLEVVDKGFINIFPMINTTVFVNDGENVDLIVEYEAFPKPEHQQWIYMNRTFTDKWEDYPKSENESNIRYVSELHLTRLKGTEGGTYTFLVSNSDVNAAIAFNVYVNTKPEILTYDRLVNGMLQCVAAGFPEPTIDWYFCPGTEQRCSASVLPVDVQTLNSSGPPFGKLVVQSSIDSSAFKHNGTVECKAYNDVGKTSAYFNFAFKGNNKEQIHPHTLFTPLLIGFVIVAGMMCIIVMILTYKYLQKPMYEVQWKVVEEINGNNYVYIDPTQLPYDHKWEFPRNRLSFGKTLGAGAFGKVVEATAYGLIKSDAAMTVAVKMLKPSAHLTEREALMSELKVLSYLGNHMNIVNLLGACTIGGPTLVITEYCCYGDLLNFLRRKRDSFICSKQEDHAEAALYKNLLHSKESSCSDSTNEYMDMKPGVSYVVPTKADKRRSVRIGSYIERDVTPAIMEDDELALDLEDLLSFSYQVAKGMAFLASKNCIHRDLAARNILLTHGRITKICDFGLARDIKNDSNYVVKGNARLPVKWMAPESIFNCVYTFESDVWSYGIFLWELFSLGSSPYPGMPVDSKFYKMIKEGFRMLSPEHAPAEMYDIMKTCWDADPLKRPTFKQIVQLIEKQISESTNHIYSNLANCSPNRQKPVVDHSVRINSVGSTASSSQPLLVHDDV
# Method: as §1
# GSK3B = molecular target: T19, GSK3B (Homo sapiens, UniProt P49841); experiment: as above; settings: MBZ at 10 μM, lower = stronger hit, read-out: Percent Control at 10 μM
# T19 construct: purchased Discoverx (Kinomescan); host or cells: E. coli BL21-derived host (T7 phage) or HEK-293
# Method: as §1
# KIT (D816V) = molecular target: T20, KIT (D816V) (Homo sapiens, UniProt P10721, D816V); experiment: as above; settings: MBZ at 10 μM; listed as 'KIT (D816V)', value in parentheses; read-out: Percent Control at 10 μM
# T20 construct: purchased Discoverx (Kinomescan); host or cells: E. coli BL21-derived host (T7 phage) or HEK-293
# T20 sequence (P10721 26-976 D816V): as the sequence (P10721 26-976) above, with D791V counted along it
# Method: as §1
# CDK7 = molecular target: T21, CDK7 (Homo sapiens, UniProt P50613); experiment: as above
# T21 construct: purchased Discoverx (Kinomescan); host or cells: E. coli BL21-derived host (T7 phage) or HEK-293
# T21 sequence (P50613 whole entry): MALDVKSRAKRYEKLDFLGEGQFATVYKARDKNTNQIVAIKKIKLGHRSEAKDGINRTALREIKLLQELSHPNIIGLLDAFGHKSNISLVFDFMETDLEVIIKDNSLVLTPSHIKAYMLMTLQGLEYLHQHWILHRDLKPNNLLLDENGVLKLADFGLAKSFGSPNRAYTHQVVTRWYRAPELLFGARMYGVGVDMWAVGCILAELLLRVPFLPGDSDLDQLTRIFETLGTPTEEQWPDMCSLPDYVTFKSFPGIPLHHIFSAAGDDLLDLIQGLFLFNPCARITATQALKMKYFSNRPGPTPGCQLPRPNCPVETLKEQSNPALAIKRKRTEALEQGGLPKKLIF
# Method: as §1
# ABL1-phosphorylated = molecular target: T22, ABL1-phosphorylated (Homo sapiens, UniProt P00519); experiment: as above
# T22 construct: purchased Discoverx (Kinomescan); host or cells: E. coli BL21-derived host (T7 phage) or HEK-293
# Method: as §1
# [2] = molecular target: T23, ABL1(E255K)-phosphorylated (Homo sapiens, UniProt P00519, E255K); experiment: as above; settings: MBZ at 10 μM, lower = stronger hit, read-out: Percent Control at 10 μM
# T23 construct: purchased Discoverx (Kinomescan); host or cells: E. coli BL21-derived host (T7 phage) or HEK-293
# Method: as §1
# [3] = 11-point dose response, read-out: Binding Affinity (Kd)
# [4] = MBZ at 10 μM, lower = stronger hit, read-out: Percent Control at 10 μM
structure (smiles),measurement,setting,value
"COC(=O)Nc1nc2ccc(C(=O)c3ccccc3)cc2[nH]1 [MBZ, mebendazole]",Kd,VEGFR-2; [3],3600 nM
same,remaining binding at 10 µM,VEGFR-2; [4],30%
same,potency on mammalian tubulin relative to hookworm tubulin (fold less),mammalian tubulin,1000 ×
same,inhibition of hookworm tubulin,hookworm tubulin,potent nanomolar inhibition
same,Kd,P38-alpha; [3],1660 nM
same,remaining binding at 10 µM,P38-alpha; [4],17%
same,remaining binding at 10 µM,SRC,34%
same,remaining binding at 10 µM,JNK1,14%
same,remaining binding at 10 µM,[1],3.2%
same,remaining binding at 10 µM,DYRK1A,34%
same,Kd,DYRK1B; [3],340 nM
same,remaining binding at 10 µM,DYRK1B; [4],5.6%
same,remaining binding at 10 µM,CSNK1D,36%
same,remaining binding at 10 µM,JAK3,29%
same,remaining binding at 10 µM,MET,32%
same,Kd,PDGFR-A; [3],820 nM
same,remaining binding at 10 µM,PDGFR-A; [4],7.8%
same,remaining binding at 10 µM,ABL1-nonphosphorylated,2%
same,Kd,JNK3; [3],410 nM
same,remaining binding at 10 µM,JNK3; [4],3%
same,remaining binding at 10 µM,PIK3CG,18%
same,Kd,PDGFR-B; [3],660 nM
same,remaining binding at 10 µM,PDGFR-B; [4],3.2%
same,remaining binding at 10 µM,ULK2,30%
same,Kd,JNK2; [3],1090 nM
same,remaining binding at 10 µM,JNK2; [4],9.6%
same,remaining binding at 10 µM,"KIT; MBZ at 10 μM, value outside parentheses, read-out: Percent Control at 10 μM",7.4%
same,Kd,KIT; [3],750 nM
same,remaining binding at 10 µM,GSK3B,35%
same,remaining binding at 10 µM,KIT (D816V),33%
same,Kd,CDK7; [3],390 nM
same,remaining binding at 10 µM,CDK7; [4],11%
same,Kd,ABL1-phosphorylated; [3],120 nM
same,remaining binding at 10 µM,ABL1-phosphorylated; [4],0.9%
same,remaining binding at 10 µM,[2],2.2%
